In brackets after ≈: the same amount, converted by molar mass.

One experiment deals with Mesorhizobium loti. As to the kind of experiment: microbe, parasite or virus in culture. Type of experiment: cell-based.
Experiment [1] concerns Agrobacterium tumefaciens. The experiment can be described thus: microbe, parasite or virus in culture. Format: cell-based.
A further experiment deals with Xanthomonas citri. As to the kind of experiment: microbe, parasite or virus in culture. Type of experiment: cell-based, Xanthomonas citri subsp. citri.
The next experiment has as its system Liberibacter crescens. The experiment can be described thus: microbe, parasite or virus in culture. Type of experiment: cell-based.
For another experiment, the target named is SecA of Ca. L. asiaticus (Candidatus Liberibacter asiaticus, UniProt A0ABM5NFG5). The experiment can be described thus: biochemical.
For another experiment, the system named is Rhizobium etli. As to the kind of experiment: microbe, parasite or virus in culture. Format: cell-based.
The test system of a further experiment is Sinorhizobium meliloti. The experiment can be described thus: microbe, parasite or virus in culture. Format: cell-based.
The test system of another experiment is A. tumefaciens. The experiment can be described thus: microbe, parasite or virus in culture. Particulars: Agrobacterium tumefaciens, 24 h. Type of experiment: cell-based.
The subject of a further experiment is Bradyrhizobium japonicum. The experiment can be described thus: microbe, parasite or virus in culture. Format: cell-based.
The subject of the next experiment is CLAS populations. The experiment can be described thus: Effect on CLAS populations, mean Ct by quantitative PCR (Example 2).

Take `COc1cc(-c2cc(-c3ccccc3)nc3sc(C(=O)O)c(N)c23)cc(OC)c1OC` [Compound C17, 3-amino-6-phenyl-4-(3,4,5-trimethoxy-phenyl)thieno [2,3-b]pyridine-2-carboxylic acid]: the MBC was 32 µg/mL (≈ 73.3 µM) in the experiment on Mesorhizobium loti; 64 µg/mL (≈ 147 µM) in [1]; 32 µg/mL (≈ 73.3 µM) against Xanthomonas citri; 16 µg/mL (≈ 36.7 µM) against Liberibacter crescens (24 h); 32 µg/mL (≈ 73.3 µM) against Liberibacter crescens (120 h); 64 µg/mL (≈ 147 µM) in the experiment with Rhizobium etli (24 hrs). For the same compound, the MBC against Rhizobium etli (120 hrs) was 64 µg/mL (≈ 147 µM); in the experiment with Sinorhizobium meliloti, 32 µg/mL (≈ 73.3 µM); with A. tumefaciens, 256 µg/mL (≈ 586 µM); in the experiment with Bradyrhizobium japonicum (24 hrs) it was 32 µg/mL (≈ 73.3 µM); with Bradyrhizobium japonicum (120 hrs) it was 64 µg/mL (≈ 147 µM). Moreover, the MIC in the experiment with Mesorhizobium loti worked out at 16 µg/mL (≈ 36.7 µM); in [1] it was 64 µg/mL (≈ 147 µM); in the experiment on Xanthomonas citri, 16 µg/mL (≈ 36.7 µM); in the experiment on Liberibacter crescens (24 h), 16 µg/mL (≈ 36.7 µM); against Liberibacter crescens (120 h), 32 µg/mL (≈ 73.3 µM); with Rhizobium etli (24 hrs) it was 32 µg/mL (≈ 73.3 µM). Further, the MIC in the experiment with Rhizobium etli (120 hrs) was 32 µg/mL (≈ 73.3 µM); against Sinorhizobium meliloti it was 16 µg/mL (≈ 36.7 µM); against Bradyrhizobium japonicum (24 hrs), 16 µg/mL (≈ 36.7 µM); in the experiment with Bradyrhizobium japonicum (120 hrs) it was 32 µg/mL (≈ 73.3 µM). Also, the IC50 – broadly, the concentration needed to halve the response being measured – against SecA of Ca. L. asiaticus was 920 nM.
Take `COc1ccc(NC(=O)C2(NC(=O)c3ccc(-n4cnnn4)cc3)CCCCC2)cc1` [Compound C18, N-(1-{[(4-methoxy-phenyl)amino]carbonyl}cyclo-hexyl)-4-(1H-tetrazol-1-yl)benzamide]: the MBC in the experiment with Mesorhizobium loti turned out to be 32 µg/mL (≈ 76.1 µM); in experiment [1], 128 µg/mL (≈ 304 µM); against Xanthomonas citri, 32 µg/mL (≈ 76.1 µM); in the experiment with Liberibacter crescens (24 h) it was 8 µg/mL (≈ 19 µM); in the experiment with Liberibacter crescens (120 h), 16 µg/mL (≈ 38.1 µM); against Rhizobium etli (24 hrs), 16 µg/mL (≈ 38.1 µM). The MBC came to 32 µg/mL (≈ 76.1 µM) against Rhizobium etli (120 hrs); 64 µg/mL (≈ 152 µM) in the experiment on Sinorhizobium meliloti; 256 µg/mL (≈ 609 µM) with A. tumefaciens; 8 µg/mL (≈ 19 µM) in the experiment with Bradyrhizobium japonicum (24 hrs); 16 µg/mL (≈ 38.1 µM) with Bradyrhizobium japonicum (120 hrs). The MIC in the experiment on Mesorhizobium loti worked out at 16 µg/mL (≈ 38.1 µM); in [1], 32 µg/mL (≈ 76.1 µM); with Xanthomonas citri it was 16 µg/mL (≈ 38.1 µM); in the experiment on Liberibacter crescens (24 h), 8 µg/mL (≈ 19 µM); in the experiment on Liberibacter crescens (120 h), 16 µg/mL (≈ 38.1 µM); in the experiment on Rhizobium etli (24 hrs), 16 µg/mL (≈ 38.1 µM). Also, the MIC was 32 µg/mL (≈ 76.1 µM) in the experiment with Rhizobium etli (120 hrs), 32 µg/mL (≈ 76.1 µM) against Sinorhizobium meliloti, 8 µg/mL (≈ 19 µM) against Bradyrhizobium japonicum (24 hrs) and 16 µg/mL (≈ 38.1 µM) against Bradyrhizobium japonicum (120 hrs). Further, the midpoint of inhibition against SecA of Ca. L. asiaticus, the IC50, lay at 480 nM.
In the case of `COc1ccc2nc(NC(=O)CSc3nc4cc(C)ccc4[nH]3)sc2c1` [Compound C19, N-(6-methoxy-1,3-benzo-thiazol-2-yl)-2-[(5-methyl-1H-benz-imidazol-2-yl)thio]acetamide], the MBC in the experiment with Mesorhizobium loti was determined as 32 µg/mL (≈ 83.2 µM); in experiment [1] it was 128 µg/mL (≈ 333 µM); in the experiment with Xanthomonas citri, 64 µg/mL (≈ 166 µM); with Liberibacter crescens (24 h) it was 8 µg/mL (≈ 20.8 µM); against Liberibacter crescens (120 h), 16 µg/mL (≈ 41.6 µM); with Rhizobium etli (24 hrs) it was 32 µg/mL (≈ 83.2 µM). For the same compound, the MBC with Rhizobium etli (120 hrs) came to 64 µg/mL (≈ 166 µM); against Sinorhizobium meliloti, 64 µg/mL (≈ 166 µM); in the experiment with A. tumefaciens, 128 µg/mL (≈ 333 µM); with Bradyrhizobium japonicum (24 hrs) it was 32 µg/mL (≈ 83.2 µM); against Bradyrhizobium japonicum (120 hrs) it was 64 µg/mL (≈ 166 µM). Also, the MIC in the experiment with Mesorhizobium loti amounted to 16 µg/mL (≈ 41.6 µM); in experiment [1] it was 32 µg/mL (≈ 83.2 µM); against Xanthomonas citri, 32 µg/mL (≈ 83.2 µM); against Liberibacter crescens (24 h) it was 8 µg/mL (≈ 20.8 µM); against Liberibacter crescens (120 h), 16 µg/mL (≈ 41.6 µM); in the experiment on Rhizobium etli (24 hrs), 32 µg/mL (≈ 83.2 µM). Besides, the MIC in the experiment with Rhizobium etli (120 hrs) amounted to 32 µg/mL (≈ 83.2 µM); with Sinorhizobium meliloti, 32 µg/mL (≈ 83.2 µM); in the experiment on Bradyrhizobium japonicum (24 hrs), 32 µg/mL (≈ 83.2 µM); against Bradyrhizobium japonicum (120 hrs) it was 64 µg/mL (≈ 166 µM). This compound also yielded an IC50 against SecA of Ca. L. asiaticus of 640 nM.
For `O=C1CCCC2=C1C(c1cccs1)Nc1ccc(C(=O)c3ccccc3)cc1N2` (stereo not shown) [Compound C20, 7-benzoyl-11-(2-thienyl)-2,3,4,5,10,11-hexahydro-1H-diabenzo[b,e] [1,4]diazepin-1-one], the MBC amounted to 16 µg/mL (≈ 39.9 µM) in the experiment with Mesorhizobium loti; 128 µg/mL (≈ 320 µM) in experiment [1]; 32 µg/mL (≈ 79.9 µM) in the experiment on Xanthomonas citri; 16 µg/mL (≈ 39.9 µM) in the experiment with Liberibacter crescens (24 h); 32 µg/mL (≈ 79.9 µM) in the experiment with Liberibacter crescens (120 h); 64 µg/mL (≈ 160 µM) in the experiment on Rhizobium etli (24 hrs). The MBC in the experiment with Rhizobium etli (120 hrs) worked out at 64 µg/mL (≈ 160 µM); against Sinorhizobium meliloti, 16 µg/mL (≈ 39.9 µM); in the experiment on A. tumefaciens, 256 µg/mL (≈ 639 µM); against Bradyrhizobium japonicum (24 hrs), 32 µg/mL (≈ 79.9 µM); with Bradyrhizobium japonicum (120 hrs), 64 µg/mL (≈ 160 µM). The MIC worked out at 8 µg/mL (≈ 20 µM) against Mesorhizobium loti; 32 µg/mL (≈ 79.9 µM) in [1]; 16 µg/mL (≈ 39.9 µM) with Xanthomonas citri; 16 µg/mL (≈ 39.9 µM) in the experiment with Liberibacter crescens (24 h); 32 µg/mL (≈ 79.9 µM) in the experiment on Liberibacter crescens (120 h); 32 µg/mL (≈ 79.9 µM) against Rhizobium etli (24 hrs). For the same compound, the MIC in the experiment with Rhizobium etli (120 hrs) was 32 µg/mL (≈ 79.9 µM); in the experiment with Sinorhizobium meliloti it was 16 µg/mL (≈ 39.9 µM); in the experiment with Bradyrhizobium japonicum (24 hrs), 16 µg/mL (≈ 39.9 µM); with Bradyrhizobium japonicum (120 hrs), 16 µg/mL (≈ 39.9 µM). Besides, the IC50 on SecA of Ca. L. asiaticus turned out to be 440 nM.
As for `CN(C)[C@@H]1C(O)=C(C(N)=O)C(=O)[C@@]2(O)C(O)=C3C(=O)c4c(O)cccc4[C@@](C)(O)[C@H]3[C@H](O)[C@@H]12` [Oxytetracycline, reference compound], the “mean Ct value (CLAS populations)” value in the experiment on CLAS populations (2 days after treatment) is given as 26.10 b; in the experiment with CLAS populations (4 days after treatment) it was 25.61 b; in the experiment on CLAS populations (Before treatment) it was 25.36 a. The MBC is 8 µg/mL (≈ 17.4 µM) in the experiment on Liberibacter crescens (120 h); 4 µg/mL (≈ 8.69 µM) in the experiment on Rhizobium etli (24 hrs); 4 µg/mL (≈ 8.69 µM) with Rhizobium etli (120 hrs); 4 µg/mL (≈ 8.69 µM) against Bradyrhizobium japonicum (24 hrs); 4 µg/mL (≈ 8.69 µM) against Bradyrhizobium japonicum (120 hrs). In addition, the MIC in the experiment on Liberibacter crescens (120 h) was 8 µg/mL (≈ 17.4 µM); with Rhizobium etli (24 hrs), 4 µg/mL (≈ 8.69 µM); with Rhizobium etli (120 hrs) it was 4 µg/mL (≈ 8.69 µM); against Bradyrhizobium japonicum (24 hrs) it was 4 µg/mL (≈ 8.69 µM); in the experiment with Bradyrhizobium japonicum (120 hrs) it was 4 µg/mL (≈ 8.69 µM).
For `COc1ccc(N(C(=O)c2ccc(-n3cnnn3)cc2)C2(C(=O)Nc3ccccc3C)CCCCC2)cc1` [SSC11, N-(4-methoxy-phenyl)-N-{1-[(2-methyl-phenyl)carbamoyl]cyclohexyl}-4-(1H-tetrazol-1-yl)benzamide], the MBC in the experiment on Mesorhizobium loti was 32 µg/mL (≈ 62.7 µM); in [1] it was 128 µg/mL (≈ 251 µM); with Xanthomonas citri it was 64 µg/mL (≈ 125 µM); with Liberibacter crescens (24 h), 16 µg/mL (≈ 31.3 µM); in the experiment on Liberibacter crescens (120 h), 32 µg/mL (≈ 62.7 µM); with Rhizobium etli (24 hrs), 32 µg/mL (≈ 62.7 µM). Also, the MBC came out at 64 µg/mL (≈ 125 µM) against Rhizobium etli (120 hrs), 64 µg/mL (≈ 125 µM) with Sinorhizobium meliloti, 16 µg/mL (≈ 31.3 µM) in the experiment on Bradyrhizobium japonicum (24 hrs) and 32 µg/mL (≈ 62.7 µM) against Bradyrhizobium japonicum (120 hrs). Moreover, the MIC in the experiment with Mesorhizobium loti was 16 µg/mL (≈ 31.3 µM); in [1] it was 32 µg/mL (≈ 62.7 µM); against Xanthomonas citri, 32 µg/mL (≈ 62.7 µM); against Liberibacter crescens (24 h), 16 µg/mL (≈ 31.3 µM); in the experiment with Liberibacter crescens (120 h) it was 32 µg/mL (≈ 62.7 µM); against Rhizobium etli (24 hrs), 16 µg/mL (≈ 31.3 µM). The MIC was 32 µg/mL (≈ 62.7 µM) against Rhizobium etli (120 hrs), 32 µg/mL (≈ 62.7 µM) with Sinorhizobium meliloti, 16 µg/mL (≈ 31.3 µM) against Bradyrhizobium japonicum (24 hrs) and 32 µg/mL (≈ 62.7 µM) in the experiment with Bradyrhizobium japonicum (120 hrs).

The values above are taken from patent US9521850B2 (University of Florida Research Foundation, Incorporated, priority 2012, dated 2016).
